{
  "source": "patent US7960508B2",
  "about": "“Peptide having cytotoxicity inhibitory activity and method of screening these peptide having cytotoxicity inhibitory activity” (Juridical Foundation The Chemo-Sero-Therapeutic Research …, priority 2001, dated 2011)",
  "molecules": {"B1": {"name": "full-length selenoprotein P: selenoprotein P as an intact molecule, a protein from blood components (protein, UniProt P49908 1-381, looked up)", "chain": "MWRSLGLALALCLLPSGGTESQDQSSLCKQPPAWSIRDQDPMLNSNGSVTVVALLQASUYLCILQASKLEDLRVKLKKEGYSNISYIVVNHQGISSRLKYTHLKNKVSEHIPVYQQEENQTDVWTLLNGSKDDFLIYDRCGRLVYHLGLPFSFLTFPYVEEAIKIAYCEKKCGNCSLTTLKDEDFCKRVSLATVDKTVETPSPHYHHEHHHNHGHQHLGSSELSENQQPGAPNAPTHPAPPGLHHHHKHKGQHRQGHPENRDMPASEDLQDLQKKLCRKRCINQLLCKLPTDSELAPRSUCCHCRHLIFEKTGSAITUQCKENLPSLCSUQGLRAEENITESCQURLPPAAUQISQQLIPTEASASURUKNQAKKUEUPSN", "modifications": "full-length", "notes": "selenoprotein P as an intact molecule, a protein from blood components"}, "B2": {"name": "SEQ ID NO: 2: selenoprotein P fragment with the amino acid sequence from 260th Lys to 362nd Asn, Xaa represents selenocysteine (protein, listed as Human plasma)", "chain": "KRCINQLLCKLPTDSELAPRS[Sec]CCHCRHLIFEKTGSAIT[Sec]QCKENLPSLCS[Sec]QGLRAEENITESCQ[Sec]RLPPAA[Sec]QISQQLIPTEASAS[Sec]R[Sec]KNQAKK[Sec]E[Sec]PSN"}},
  "key": {"Dami cells [1]": {"system": "Dami cells", "assay": "Screening of efficacious peptides: cytotoxicity-inhibitory activity (Example 3)", "assay_type": "cell-based", "settings": "for Activity/1 mM Sec: cytotoxicity-inhibitory activity per 1 mM selenocysteine", "procedure": "(§1) The cells were washed twice with 50% PBS/SA/0.03% HSA (manufactured by SIGMA) and suspended in the same medium at 3×10^4 cells/ml.\n(§2) For assessment, it was examined to what folds of dilution of tested samples the cells could survive in view of the fact that on Day 4 the cells in wells without the activity were put to death whereas the cells in wells with the activity survived.\nCytotoxicity-inhibitory activity was determined for each of the peptides obtained above as described in Reference Example 1 and in accordance with Reference Example 2. As a result, selenocysteine-containing peptides, Peptide 3 through Peptide 16, were confirmed to have the cytotoxicity-inhibitory activity."}, "Dami cells [2]": {"system": "Dami cells", "assay": "Cytotoxicity induced by fatty acid and inhibitory activity thereto (Reference Example 2)", "settings": "for fatty acid concentration inducing cytotoxicity: human", "procedure": "To 1 ml Dami cells (1×10^6 cells/dish/3 ml), which can be subcultured in serum free medium SFO3 (manufactured by Sanko Jun-yaku K.K.) containing 0.05 μM 2ME and 0.1% BSA, was added 2 ml 1:2:2 mixed medium (SA medium) of RPMI 1640/D-MEM/F-12. The cells were cultured for three days and recovered for assay. The cells were washed twice with SA/0.05% fatty acid free BSA (manufactured by Wako Jun-yaku K.K.) and suspended at 3×10^4 cells/ml in the same medium containing 2 to 16 μM arachidonic acid, linoleic acid or linolenic acid. The cell suspension was added to a 96-well plate in each 198 μl for wells for sample addition or in each 100 μl for wells for serial dilution.\nTo the wells for sample addition was added each 2 μl of 100 μM assay sample and, after stirring, a serial dilution was made with the wells containing 100 μl cell suspension. The plate was incubated at 37° C. in CO2 incubator for 4 to 5 days."}, "Dami cells [3]": {"system": "Dami cells", "assay": "Assessment system for activity to inhibit cytotoxicity induced by addition of albumin (Reference Example 1)", "assay_type": "cell-based", "procedure": "As one of preferable embodiments, a culture system of Dami cells, human megakaryoblasts, with serum free culture medium supplemented with albumin was used for screening. […] A diluted sample of active fractions was added to this culture system so that the cytotoxicity-inhibitory activity could be assessed.\nas §1, §2"}, "[4]": {"system": "intracellular GPX (glutathione peroxidase) activity in Dami cells", "assay": "Increase in intracellular GPX (glutathione peroxidase) activity (Example 5)", "assay_type": "cell-based, human", "procedure": "The resulting cells were suspended in SA/0.01% BSA at 5×10^5 cells/ml. To 1 ml of this cell suspension were added samples at a fixed concentration so as to compare a concentration that was effective for increase in GPX activity in the samples.\nThe samples included a selenoprotein P fragment, a synthetic peptide, selenocystine, selenomethionine, Ebselen and sodium selenite. The effect was compared among these samples. […] See FIG. 4 in which the axis of abscissas indicates a percent GPX activity induced by various samples with the GPX activity induced by addition of 10 nM selenoprotein P fragment being 100% while culture of Dami cells."}, "Dami cells [5]": {"system": "Dami cells", "assay": "Minimum concentration for cytotoxic effect / effective minimum concentration (Example 2)", "assay_type": "cell-based", "procedure": "Using Dami cells (described in Greenberg S. M. et al., Blood, vol. 72, p. 1968-1977 (1988)) for use in assay system for the cytotoxicity-inhibitory activity, the cells were washed twice with assay medium (50% PBS/SA/0.03% HSA (manufactured by SIGMA) or SA/0.05% BSA free from fatty acid (WAKO)/4 μM long-chain polyvalent fatty acid (e.g. arachidonic acid, linoleic acid or linolenic acid)) and suspended in the same medium at 3×10^4 cells/ml."}, "[6]": {"settings": "1 nM, 10 nM selenoprotein P fragment being 100%"}},
  "note": "Non-standard residues stand in square brackets, D forms with d. Residues, ends and D or L forms follow the SMILES beside them. No end group written: not given here. Sec = N[C@@H](C[SeH])C(=O)O",
  "data": [
    {"molecule": "Arg Ser Xaa Ser (RS[Sec]S; listed as Human plasma) [Peptide 7]", "values": [
      {"measurement": "Activity/1 mM Sec", "setting": "Dami cells [1]", "value": "95,000"}
    ]},
    {"molecule": "CCCCC/C=C\\C/C=C\\C/C=C\\C/C=C\\CCCC(=O)O", "note": "[arachidonic acid]", "values": [
      {"measurement": "fatty acid concentration inducing cytotoxicity", "setting": "Dami cells [2]", "value": "≥ 4", "unit": "µM"}
    ]},
    {"molecule": "Lys Arg Cys Ile Asn Gln Leu Leu Cys Lys Leu Pro Thr Asp Ser Glu Leu Ala Pro Arg Ser Xaa Cys Cys His Cys Arg His Leu Ile Phe Glu Lys (KRCINQLLCKLPTDSELAPRS[Sec]CCHCRHLIFEK; cysteine pairing not given here; listed as Human plasma) [SEQ ID NO: 3, peptide fragment purified under reduced condition from selenoprotein P fragment]", "values": [
      {"measurement": "cytotoxicity-inhibitory activity", "setting": "Dami cells [3]; result in words, assay not specified", "value": "had the cytotoxicity-inhibitory activity"}
    ]},
    {"molecule": "CCCCC/C=C\\C/C=C\\C/C=C\\C/C=C\\CCCCCC(=O)O", "note": "[adrenic acid]", "values": [
      {"measurement": "induction of cytotoxicity by fatty acid", "setting": "Dami cells [2]; 10 μM, serum free culture, absence of selenoprotein P", "value": "induced cytotoxicity"}
    ]},
    {"molecule": "Lys Asn Gln Ala Lys Lys Xaa Glu (KNQAKK[Sec]E; listed as Human plasma) [Peptide 12]", "values": [
      {"measurement": "Activity/1 mM Sec", "setting": "Dami cells [1]", "value": "24,000"}
    ]},
    {"molecule": "KRCINQLLCKLPTDSELAPRS (cysteine pairing not given here) [Peptide 1]", "values": [
      {"measurement": "Activity/1 mM Sec", "setting": "Dami cells [1]", "value": 0}
    ]},
    {"molecule": "CCCCC/C=C\\C/C=C\\CCCCCCCC(=O)O", "note": "[linoleic acid]", "values": [
      {"measurement": "fatty acid concentration inducing cytotoxicity", "setting": "Dami cells [2]", "value": "≥ 4", "unit": "µM"}
    ]},
    {"molecule": "RSSCCHCRHLIFEK (cysteine pairing not given here) [Peptide 2]", "values": [
      {"measurement": "Activity/1 mM Sec", "setting": "Dami cells [1]", "value": 0}
    ]},
    {"molecule": "Ala Glu Glu Asn Ile Thr Glu Ser Ser Gln Xaa Arg (AEENITESSQ[Sec]R; listed as Human plasma) [Peptide 10]", "values": [
      {"measurement": "Activity/1 mM Sec", "setting": "Dami cells [1]", "value": "6,000"}
    ]},
    {"molecule": "C[Se]CC[C@H](N)C(=O)O", "note": "[selenomethionine]", "values": [
      {"measurement": "increase in intracellular GPX activity", "setting": "[4]; 10 nM", "value": "increase in the activity could scarcely be observed"},
      {"measurement": "effective minimum concentration of selenium to inhibit 80% or more of cytotoxicity", "setting": "Dami cells [5]", "value": "around 1 μM"}
    ]},
    {"molecule": "Xaa Pro Ser Asn ([Sec]PSN; listed as Human plasma) [Peptide 13]", "values": [
      {"measurement": "Activity/1 mM Sec", "setting": "Dami cells [1]", "value": "24,000"}
    ]},
    {"molecule": "vitamin E", "values": [
      {"measurement": "effective concentration inhibiting cytotoxicity", "setting": "Dami cells [2]; in the presence of 4 μM linoleic acid", "value": "about 100 nM"}
    ]},
    {"molecule": "O=[Se](O)O", "note": "[sodium selenite]", "values": [
      {"measurement": "increase in intracellular GPX activity", "setting": "[4]; [6]", "value": "around 50%"},
      {"measurement": "concentration at which toxicity was observed", "setting": "Dami cells [5]; on the basis of selenium concentration, 4 to 5 days culture", "value": "around 500 nM"}
    ]},
    {"molecule": "Arg Ser Xaa Ser Cys His Cys Arg His Leu Ile Phe Glu Lys (RS[Sec]SCHCRHLIFEK; cysteine pairing not given here; listed as Human plasma) [Peptide 4]", "values": [
      {"measurement": "Activity/1 mM Sec", "setting": "Dami cells [1]", "value": "24,000"}
    ]},
    {"molecule": "N[C@@H](C[Se][Se]C[C@H](N)C(=O)O)C(=O)O", "note": "[selenocystine]", "values": [
      {"measurement": "increase in intracellular GPX activity", "setting": "[4]; [6]", "value": "around 50%"},
      {"measurement": "toxicity upon addition to cell culture", "setting": "Dami cells [5]", "value": "fairly strong toxicity"}
    ]},
    {"molecule": "CC[C@H](C)[C@H](NC(=O)[C@H](CC(C)C)NC(=O)[C@H](Cc1c[nH]cn1)NC(=O)[C@H](CCCNC(=N)N)NC(=O)[C@H](CO)NC(=O)[C@H](Cc1c[nH]cn1)NC(=O)[C@H](CO)NC(=O)[C@H](CO)NC(=O)[C@H](C[SeH])NC(=O)[C@H](CO)NC(=O)[C@@H](N)CCCNC(=N)N)C(=O)N[C@@H](Cc1ccccc1)C(=O)N[C@@H](CCC(=O)O)C(=O)N[C@@H](CCCCN)C(=O)O", "note": "[Peptide 6] (H-RS[Sec]SSHSRHLIFEK-OH)", "values": [
      {"measurement": "cytotoxicity-inhibitory activity", "setting": "Dami cells [1]; result in words", "value": "could inhibit cytotoxicity most effectively at the lowest concentration"}
    ]},
    {"molecule": "Thr Gly Ser Ala Ile Thr Xaa Gln Ser Lys (TGSAIT[Sec]QSK; listed as Human plasma) [Peptide 8]", "values": [
      {"measurement": "Activity/1 mM Sec", "setting": "Dami cells [1]", "value": "79,000"}
    ]},
    {"molecule": "O=c1c2ccccc2[se]n1-c1ccccc1", "note": "[Ebselen]", "values": [
      {"measurement": "toxicity upon addition to cell culture", "setting": "Dami cells [5]", "value": "exhibited a strong toxicity"}
    ]},
    {"molecule": "Lys Glu Phe Ile Leu His Arg Ser His Ser Ser Xaa Ser Arg (KEFILHRSHSS[Sec]SR; listed as Human plasma) [Peptide 14]", "values": [
      {"measurement": "Activity/1 mM Sec", "setting": "Dami cells [1]", "value": "95,000"}
    ]},
    {"molecule": "Leu Pro Pro Ala Ala Xaa Gln Ile Ser Gln Gln (LPPAA[Sec]QISQQ; listed as Human plasma) [Peptide 16]", "values": [
      {"measurement": "Activity/1 mM Sec", "setting": "Dami cells [1]", "value": "24,000"}
    ]},
    {"molecule": "Leu Ile Pro Thr Glu Ala Ser Ala Ser Xaa Arg (LIPTEASAS[Sec]R; listed as Human plasma) [Peptide 11]", "values": [
      {"measurement": "Activity/1 mM Sec", "setting": "Dami cells [1]", "value": "28,000"}
    ]},
    {"molecule": "Glu Asn Leu Pro Ser Leu Ser Ser Xaa Gln Gly Leu Arg (ENLPSLSS[Sec]QGLR; listed as Human plasma) [Peptide 9]", "values": [
      {"measurement": "Activity/1 mM Sec", "setting": "Dami cells [1]", "value": "24,000"}
    ]},
    {"molecule": "Arg Ser Xaa Cys Cys His Cys Arg His Leu Ile Phe Glu Lys (RS[Sec]CCHCRHLIFEK; cysteine pairing not given here; listed as Human plasma) [Peptide 3]", "values": [
      {"measurement": "Activity/1 mM Sec", "setting": "Dami cells [1]", "value": "95,000"}
    ]},
    {"molecule": "Arg Ser Xaa Ser Ser His Cys Arg His Leu Ile Phe Glu Lys (RS[Sec]SSHCRHLIFEK; listed as Human plasma) [Peptide 5]", "values": [
      {"measurement": "Activity/1 mM Sec", "setting": "Dami cells [1]", "value": "16,000"}
    ]},
    {"molecule": "B1", "values": [
      {"measurement": "toxicity upon addition to cell culture", "setting": "Dami cells [5]", "value": "no strong toxicity"}
    ]},
    {"molecule": "B2", "values": [
      {"measurement": "cytotoxicity-inhibitory activity", "setting": "Dami cells [3]", "value": "having the cytotoxicity-inhibitory activity"}
    ]}
  ]
}
